# Source: paper PMC3790782, “Optimization and Pharmacological Validation of a Leukocyte Migration Assay in Zebrafish Larvae for the Rapid In Vivo Bioactivity Analysis of Anti-Inflammatory Secondary Metabolites” (PLoS ONE, 2013)
# Where a name gives a salt, the structure may show the parent alone. Marks after values point to notes of the source that are not given here.
# Experiments:
# [1] = test system: leukocyte migration in 4 dpf zebrafish larvae; test: LPS-enhanced leukocyte migration assay (tail transection, MPO staining, RLM); assay type: in vivo, zebrafish (Danio rerio); parameters: Anti-inflammatory activity at MTC: concentration or dose not given beside the values; details: for Leukocyte migration (RLM) / response vs control in vivo at 1 µM / response vs control in vivo at 10 µM / response vs control in vivo at 30 µM / response vs control in vivo at 100 µM / response vs control in vivo at 300 µM / response vs control in vivo at 500 µM / Relative leukocyte migration (RLM): tail cut + 10 µg/ml LPS, relative to 1% DMSO control; for response vs control in vivo at 1 µM / response vs control in vivo at 10 µM / response vs control in vivo at 30 µM / response vs control in vivo at 100 µM / response vs control in vivo at 300 µM / response vs control in vivo at 500 µM: Danio rerio, Leukocyte, 8 h; for Anti-inflammatory activity at MTC: (1−RLM)x100; for RLM (zebrafish-based assay): at the MTC given in Table 2
# Experimental: The lipopolysaccharide- (LPS−)enhanced leukocyte migration assay was carried out by triplicate for each sample in 4 dpf zebrafish larvae. The total incubation period of the assay was eight hours. Initially, a pre-incubation step (i.e. prior to tail transection) of one hour at 28°C (±0.5°C) was carried out in 24-well culture plates. Ten larvae per well were incubated in 1 ml of testing mix, consisting of a specific concentration of each sample and the amount of 0.3 X Danieau’s medium necessary to complete 1 ml. Immediately after pre-incubation, complete tail transection in each larva was performed. Zebrafish larvae were first anesthetized by immersion in 0.3 X Danieau’s medium containing 70 µg/ml tricaine (ethyl 3-aminobenzoate, Sigma-Aldrich) and then tail transection near the tip was performed with a sterile scalpel under light microscopy (Carl Zeiss Stemi 2000C). Larvae were then placed in fresh 0.3 X Danieau’s medium without anesthetic for a few minutes until the final incubation period. For the last step, a new testing mix was prepared including 10 µg/ml lipopolysaccharides from Salmonella typhosa ATCC 10749 (LPS, Sigma-Aldrich Chemical) to enhance leukocyte migration to the injured zone. The final incubation step (i.e. subsequent to tail transection) of the injured larvae in contact with the pro-inflammatory agent and with the specific concentration of each SAID, NSAID, non-AID, NP, and PE at 28°C (±0.5°C) was done for 7 h. Within this period, sporadic evaluations of the larvae were done to examine their viability during the time of the assay. Larvae that completed the incubation time were fixed overnight in 4% formaldehyde (Sigma-Aldrich) at 4°C. Controls containing only the vehicle (1% DMSO) were processed in parallel.
# Fixed larvae were gently washed twice with 1 X PBST (PBS-1X phosphate buffered saline, Gibco +0.1% Tween 20) for 5–10 min and then incubated at room temperature in 1 ml of freshly prepared Leucognost® Pox (Merck) staining solution, made according the directions of the provider. Observation of stained black-brown cells (leukocytes) in the larvae was possible within 15 min of incubation. Evaluation of the migrating leukocytes, particularly surrounding the injured region, in each larva was done under light microscopy (Carl Zeiss Stemi 2000C) and scoring was done using a migration scale established to semi-quantify the amount of migrating leukocytes on one side of each larva.
# The average of the value achieved for each of the ten larvae tested in triplicate for one sample is expressed as relative leukocyte migration (RLM) according to the formula: RLM = leukocyte migration of the larva/average leukocyte migration of the negative control.
# To determine the extent of leukocyte migration generated after exposing 4 dpf zebrafish larvae to mechanical and biological stimuli – namely tail transection and LPS exposure – we used a commercially available whole-mount cytochemical staining method (Leucognost® Pox, Merck) to detect MPO activity in situ. To minimize the number of handling steps post-staining, this method was chosen over the alternative myeloperoxidase stain Sudan Black B [26], [27], which also stains phospholipids, neural fats and sterols. In our experiments, we visualized migrating leukocytes in 4 dpf larvae at 8 h post-injury. Microscopic evaluations of MPO-stained larvae allowed us to score the degree of leukocyte migration at the trauma site according to a comparative scale that we established particularly for this purpose (Figure 2). Myeloperoxidase-positive cells, appearing as black-brown dots, were counted in a segment at the edge of the tail on one side of every larva (Figure 2). The number of leukocytes was then graded according to the comparative scale and subsequently converted into a relative value expressed as the relative leukocyte migration (RLM) activity for the total number or larvae for one sample.
# zebrafish larvae = details: 4 dpf zebrafish larvae, 8 h post-incubation; not more than 2 of 10 larvae with signs of toxicity
# Experimental: For the toxicological analysis, ten 4 dpf zebrafish larvae were used per well in 24-well culture plates. Incubation of each set of larvae at 28°C (±0.5) was done with SAIDs, NSAIDs and non-AIDs at concentrations ranging from 0.1 µM to 500 µM, with NPs at concentrations ranging from 1 µM to 500 µM, and with PEs at concentrations ranging from 1 ug/ml to 1 mg/ml. Controls containing only vehicle (1% DMSO) and untreated larvae were processed in parallel. Examination of each set of larvae was done under light microscopy (Carl Zeiss Stemi 2000C) each hour during a period of 8 h, and a final evaluation at 24 h post-incubation. At 8 h post-incubation, signs of toxicity, e.g. pericardial oedema, cardiovascular defects (arrhythmia or decreased circulation), balance defects (loss of normal posture), locomotor defects (decreased touch response), and ultimately death were scored for every drug, NP, and PE to further establish their maximum tolerated concentration (MTC). […] In this context, only non-toxic concentrations (below the MTC) were considered for further leukocyte migration analysis. All the toxicological assays were performed in duplicate using a different batch of zebrafish larvae for each set of experiments.
# Toxicological assessment of all the samples analyzed in our study was done prior to the evaluation of their anti-inflammatory properties. The maximum tolerated concentrations (MTCs) were determined at 8 h post-treatment according to toxicological parameters including pericardial oedema, cardiovascular defects (arrhythmia or decreased circulation), balance defects (loss of normal posture), locomotor defects (decreased touch response), and death. […] Vehicle-treated (1% DMSO) and untreated larvae were processed in parallel to minimize experimental variability in this toxicological evaluation.
# TNF-α, RAW 264.7 = details: cited from earlier work
# [2] = test system: COX, rat peritoneal leukocytes; parameters: method as in PMID 19378317, PMID 16220571, PMID 21443976; details: cited from earlier work
# IL-1β, human monocytes = test system: IL-1β, human monocytes; parameters: method as in PMID 19378317, PMID 17982104, PMID 21443976; details: cited from earlier work
# TNF-α, RBL-2H3 = test system: TNF-α, RBL-2H3; parameters: method as in PMID 19378317, PMID 17982104, PMID 21443976; details: cited from earlier work
# IL-4, RBL-2H3 = test system: IL-4, RBL-2H3; parameters: method as in PMID 19378317, PMID 17982104, PMID 21443976; details: cited from earlier work
# [3] = test system: NO, PGE2, COX-2, RAW 264.7; parameters: method as in PMID 21771629, PMID 21870032; details: cited from earlier work
# PGE2, rat macrophages = details: cited from earlier work
# TNF-α, iNOS, macrophages = test system: TNF-α, iNOS, macrophages; parameters: method as in PMID 19378317, PMID 15668926; details: cited from earlier work
Compound,response vs control in vivo at 1 µM ([1]; 1 µM) [%],response vs control in vivo at 10 µM [1] [%],response vs control in vivo at 30 µM ([1]; 30 µM) [%],Anti-inflammatory activity at MTC [1] [%],RLM (zebrafish-based assay) [1],Maximum tolerated concentration (MTC) (zebrafish larvae) [µM],response vs control in vivo at 100 µM [1] [%],Relative leukocyte migration (RLM) ([1]; 0.1 µM),Relative leukocyte migration (RLM) ([1]; 200 µM),other results
"O=C1C[C@@H](c2ccc(O)cc2)Oc2cc(O)cc(O)c21 [Naringenin, naringenin]",67,42,37,63,0.37,30,,,,Leukocyte migration (RLM) ([1]; 30 µM): 0.37 ^**
"C[C@]1(OC(=O)/C=C/c2ccccc2)C[C@@H](O)[C@]2(O)C=CO[C@@H](O[C@@H]3O[C@H](CO)[C@@H](O)[C@H](O)[C@H]3O)[C@@H]21 [Harpagoside, harpagoside]",48,29,30,,,300,15,,,Leukocyte migration (RLM) ([1]; 300 µM): 0.12 ^*; response vs control in vivo at 300 µM ([1]; 300 µM): 12%
"O=c1cc(-c2ccc(O)c(O)c2)oc2cc(O)cc(O)c12 [Luteolin, luteolin]",63,61,55,59,0.41,500,48,,,"IC50 (TNF-α, RAW 264.7): < 1000 nM; response vs control in vivo at 300 µM ([1]; 300 µM): 44%; response vs control in vivo at 500 µM ([1]; 500 µM): 41%; IC50 [2]: 100 µg/mL"
"O=c1cc(-c2ccc(O)cc2)oc2cc(O)cc(O)c12 [Apigenin, apigenin]",74,53,54,65,0.35,500,37,,,"IC50 (IL-1β, human monocytes): 10 µM; IC50 (TNF-α, RBL-2H3): 5.3 µM; Leukocyte migration (RLM) ([1]; 500 µM): 0.35 ^***; response vs control in vivo at 300 µM ([1]; 300 µM): 37%; response vs control in vivo at 500 µM ([1]; 500 µM): 35%; Anti-inflammatory activity at MTC ([1]; listed as apigenin): 65%; IC50 (IL-4, RBL-2H3): 3.6 µM"
COc1ccc2c(c1)c(CC(=O)O)c(C)n2C(=O)c1ccc(Cl)cc1 [indomethacin],,,,,,200,,0.72,0.09,
CN1C(C(=O)Nc2ccccn2)=C(O)c2ccccc2S1(=O)=O [piroxicam],,,,,,100,3,0.85,,
C[C@@H]1C[C@H]2[C@@H]3CCC4=CC(=O)C=C[C@]4(C)[C@@]3(F)[C@@H](O)C[C@]2(C)[C@@]1(O)C(=O)CO [dexamethasone],,,,,,,,0.81,0.06,
C[C@]12C=CC(=O)C=C1CC[C@@H]1[C@@H]2[C@@H](O)C[C@@]2(C)[C@H]1CC[C@]2(O)C(=O)CO [prednisolone],,,,,,,,0.66,0.07,
O=C(O)Cc1ccccc1Nc1c(Cl)cccc1Cl [diclofenac],,13,,,,10,,0.69,,
CC(C)=CCC[C@](C)(O)[C@@H]1CC=C(C)CC1 [(−)-α-bisabolol],,,,52,0.48,30,,,,Leukocyte migration (RLM) ([1]; 1 µM): 0.53 ^*; Leukocyte migration (RLM) ([1]; 30 µM): 0.48; IC50 [3]: 100 µM
Nc1nc(N)nc(N)n1 [melamine],,,,,,200,,,0.85,
"CN(C)CCC=C1c2ccccc2COc2ccccc21 [doxepin, doxepin hydrochloride]",,,71,,,,,,,
"NC12CC3CC(CC(C3)C1)C2 [amantadine, amantadine hydrochloride]",,,,,,200,,,0.82,
"O=c1c(O)c(-c2ccc(O)c(O)c2)oc2cc(O)cc(O)c12 [Quercetin, quercetin]",65,55,35,69,0.31,500,42,,,"IC50 (TNF-α, RAW 264.7): 1000 nM; IC50 (PGE2, rat macrophages): 13.9 µM; Leukocyte migration (RLM) ([1]; 500 µM): 0.31 ^*; response vs control in vivo at 300 µM ([1]; 300 µM): 40%; response vs control in vivo at 500 µM ([1]; 500 µM): 31%; Anti-inflammatory activity at MTC ([1]; listed as quercetin): 69%; IC50 (TNF-α, iNOS, macrophages): 50 µM"
